This note sets out measurements from patent US20240228488A1 (TAKEDA PHARMACEUTICAL COMPANY LIMITED, priority 2021, published 2024).

The structures appear in SMILES notation. Some results are limits rather than exact numbers.

The target of experiment [1] is human activated kallikrein enzyme (Homo sapiens, UniProt P03952). Nature of the experiment: Plasma kallikrein inhibition, fluorogenic PFR-AMC substrate, 500 pM activated kallikrein format. In kind it is biochemical. As to conditions: 500 pM activated kallikrein, 300 uM PFR-AMC, 30 min preincubation, 10 min reaction; read-out: Primary Dose Response Assay: Average EC50. In a few lines: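 Fluorescence (ex 380/em 460 nm) is read after 10 min of 300 uM PFR-AMC turnover by 500 pM enzyme at RT. Compounds sit with enzyme for 30 min beforehand. Buffer is Tris (pH 7.5) with EDTA, NaCl, PEG-400 and Triton X-100; EC50 values are banded.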
Chain of human activated kallikrein enzyme (P03952 391-638 limits assumed): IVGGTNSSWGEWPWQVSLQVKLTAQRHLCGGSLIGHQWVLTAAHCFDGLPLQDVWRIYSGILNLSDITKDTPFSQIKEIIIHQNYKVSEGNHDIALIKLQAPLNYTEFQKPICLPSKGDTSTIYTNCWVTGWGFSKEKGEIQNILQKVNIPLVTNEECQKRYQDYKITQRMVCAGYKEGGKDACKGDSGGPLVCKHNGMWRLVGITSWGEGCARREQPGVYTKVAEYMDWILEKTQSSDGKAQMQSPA
Chain of human activated kallikrein enzyme (P03952 20-390 partner limits assumed): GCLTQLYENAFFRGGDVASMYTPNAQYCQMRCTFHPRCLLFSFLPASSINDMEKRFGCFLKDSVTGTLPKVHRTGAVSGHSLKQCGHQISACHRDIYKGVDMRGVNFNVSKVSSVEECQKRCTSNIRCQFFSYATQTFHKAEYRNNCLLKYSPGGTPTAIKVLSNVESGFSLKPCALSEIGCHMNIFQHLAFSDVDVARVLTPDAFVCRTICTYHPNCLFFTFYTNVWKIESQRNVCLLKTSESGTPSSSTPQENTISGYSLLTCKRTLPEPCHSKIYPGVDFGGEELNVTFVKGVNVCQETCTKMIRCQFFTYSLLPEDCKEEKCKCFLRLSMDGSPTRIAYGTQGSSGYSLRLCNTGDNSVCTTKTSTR

In another experiment the target is T1, plasma kallikrein (Homo sapiens, UniProt P03952).
T1 construct: from tissue
T1 sequence (P03952 391-638 limits assumed): as the sequence (P03952 391-638 limits assumed) above
T1 sequence (P03952 20-390 partner limits assumed): as the sequence (P03952 20-390 partner limits assumed) above
Nature of the experiment: Neat human plasma assay, FXIIa contact pathway-activated, PFR-AMC substrate. In kind it is biochemical. As to conditions: citrated human plasma 78% final, 10 nM human FXIIa, 100 μM PFR-AMC; read-out: Human Plasma Assay: IC90. In a few lines:
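Compound inhibition of plasma kallikrein measured as PFR-AMC (100 μM) cleavage rate over 5 min at room temperature in 78% citrated human plasma activated with 10 nM FXIIa (Tris pH 7.5 buffer). IC50/IC90 from 4-parameter fit of rate versus inhibitor concentration.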

`Cc1ccnc([C@H]2C[C@@H]2C(=O)Nc2cc(NCc3cn4cc(C5CC5)cc(N5CC(=O)N(C)C5=O)c4n3)cnn2)n1` (racemic) [Example 617, rac-(1S*,2S*)—N-(5-(((6-cyclopropyl-8-(3-methyl-2,4-dioxoimidazolidin-1-yl)imidazo[1,2-a]pyridin-2-yl)methyl)amino)pyridazin-3-yl)-2-(4-methylpyrimidin-2-yl)cyclopropane-1-carboxamide]: the EC50 (commonly the midpoint of the concentration-response curve) in experiment [1] is less than 1 nM. At plasma kallikrein, the IC90 (in general, the concentration at which the effect reaches the 90% level) was less than 400 nM.

Regarding `Cc1ccnc([C@H]2C[C@@H]2C(=O)Nc2cc(NCc3cn4cc(C5CC5)cc(N5CC(=O)N(C)C5=O)c4n3)cc(C(F)(F)F)n2)n1` (racemic) [Example 618, rac-(1S*,2S*)—N-(4-(((6-cyclopropyl-8-(3-methyl-2,4-dioxoimidazolidin-1-yl)imidazo[1,2-a]pyridin-2-yl)methyl)amino)-6-(trifluoromethyl)pyridin-2-yl)-2-(4-methylpyrimidin-2-yl)cyclopropane-1-carboxamide], the EC50 in experiment [1] is less than 1 nM. At plasma kallikrein, the IC90 was 400 to 1500 nM.

For the compound `Cc1ccnc([C@H]2C[C@@H]2C(=O)Nc2cc(Cc3cn4cc(C5CC5)cc(N5CC(=O)N(C)C5=O)c4n3)ncn2)n1` (racemic) [Example 620, rac-(1S*,2S*)—N-(6-((6-cyclopropyl-8-(3-methyl-2,4-dioxoimidazolidin-1-yl)imidazo[1,2-a]pyridin-2-yl)methyl)pyrimidin-4-yl)-2-(4-methylpyrimidin-2-yl)cyclopropane-1-carboxamide], in experiment [1], the 50% effective concentration (EC50) lay in the range of 1 to 10 nM. Further, at plasma kallikrein, the concentration for an effect of 90% (IC90) lay within 400 to 1500 nM.

For `COCc1cnc(NC(=O)[C@H]2C[C@@H]2c2nccc(C)n2)nc1NCc1cn2cc(C3CC3)cc(N3CC(=O)N(C)C3=O)c2n1` (racemic) [Example 621, rac-(1S*,2S*)—N-(4-(((6-cyclopropyl-8-(3-methyl-2,4-dioxoimidazolidin-1-yl)imidazo[1,2-a]pyridin-2-yl)methyl)amino)-5-(methoxymethyl)pyrimidin-2-yl)-2-(4-methylpyrimidin-2-yl)cyclopropane-1-carboxamide], the 50% effective concentration (EC50) in experiment [1] is less than 1 nM. Moreover, at plasma kallikrein, the IC90 was less than 400 nM.

Turning to `Cc1ccnc([C@H]2C[C@@H]2C(=O)Nc2nc(Cl)nc(NCc3cn4cc(C5CC5)cc(N5CC(=O)N(C)C5=O)c4n3)n2)n1` (racemic) [Example 622, rac-(1S*,2S*)—N-(4-chloro-6-(((6-cyclopropyl-8-(3-methyl-2,4-dioxoimidazolidin-1-yl)imidazo[1,2-a]pyridin-2-yl)methyl)amino)-1,3,5-triazin-2-yl)-2-(4-methylpyrimidin-2-yl)cyclopropane-1-carboxamide], in experiment [1], the EC50 is less than 1 nM. On plasma kallikrein, the IC90 lay within 400 to 1500 nM.

Take `Cc1ccnc([C@H]2C[C@@H]2C(=O)Nc2ncnc(NCc3cn4cc(C5CC5)cc(N5CC(=O)N(C)C5=O)c4n3)n2)n1` (racemic) [Example 623, rac-(1S*,2S*)—N-(4-(((6-cyclopropyl-8-(3-methyl-2,4-dioxoimidazolidin-1-yl)imidazo[1,2-a]pyridin-2-yl)methyl)amino)-1,3,5-triazin-2-yl)-2-(4-methylpyrimidin-2-yl)cyclo propane-1-carboxamide]: in experiment [1], the concentration giving a half-maximal response (EC50) was less than 1 nM. In addition, the 90% effect concentration (IC90) on plasma kallikrein is less than 400 nM.

`Cc1ccnc([C@H]2C[C@@H]2C(=O)Nc2ncc(CO)c(NCc3cn4cc(C5CC5)cc(N5CC(=O)N(C)C5=O)c4n3)n2)n1` (racemic) [Example 627, rac-(1S*,2S*)—N-(4-(((6-cyclopropyl-8-(3-methyl-2,4-dioxoimidazolidin-1-yl)imidazo[1,2-a]pyridin-2-yl)methyl)amino)-5-(hydroxymethyl)pyrimidin-2-yl)-2-(4-methylpyrimidin-2-yl)cyclopropane-1-carboxamide]: the EC50 in experiment [1] was less than 1 nM. The 90% effect concentration (IC90) on plasma kallikrein is less than 400 nM.

On to `Cc1ccnc([C@H]2C[C@@H]2C(=O)Nc2ncc(C(F)(F)F)c(OCc3cn4cc(C5CC5)cc(N5CC(=O)N(C)C5=O)c4n3)n2)n1` (racemic) [Example 628, rac-(1S*,2S*)—N-(4-((6-cyclopropyl-8-(3-methyl-2,4-dioxoimidazolidin-1-yl)imidazo[1,2-a]pyridin-2-yl)methoxy)-5-(trifluoromethyl)pyrimidin-2-yl)-2-(4-methylpyrimidin-2-yl)cyclopropane-1-carboxamide], for which, in experiment [1], the EC50 is less than 1 nM. Moreover, the IC90 on plasma kallikrein was 400 to 1500 nM.

With `CN1C(=O)CN(c2cc(C3CC3)cn3cc(CNc4cc(NC(=O)[C@H]5C[C@@H]5c5nccc(CF)n5)ncn4)nc23)C1=O` (racemic) [Example I-163, rac-(1S*,2S*)-N-(6-(((6-cyclopropyl-8-(3-methyl-2,4-dioxoimidazolidin-1-yl)imidazo[1,2-a]pyridin-2-yl)methyl)amino)pyrimidin-4-yl)-2-(4-(fluoromethyl)pyrimidin-2-yl)cyclopropane-1-carboxamide], the EC50 in experiment [1] is less than 1 nM. For the same compound, the 90% effect concentration (IC90) at plasma kallikrein was in the range of 400 to 1500 nM.

Take `CN1C(=O)CN(c2cc(C3CC3)cn3cc(CNc4cc(NC(=O)[C@H]5C[C@@H]5c5nccc(C(F)F)n5)ncn4)nc23)C1=O` (racemic) [Example I-164, rac-(1S*,2S*)-N-(6-(((6-cyclopropyl-8-(3-methyl-2,4-dioxoimidazolidin-1-yl)imidazo[1,2-a]pyridin-2-yl)methyl)amino)pyrimidin-4-yl)-2-(4-(difluoromethyl)pyrimidin-2-yl)cyclopropane-1-carboxamide]: the concentration giving a half-maximal response (EC50) in experiment [1] lay in the range of 1 to 10 nM. Besides, at plasma kallikrein, the concentration for an effect of 90% (IC90) lay within 400 to 1500 nM.

`Cc1ccc(C#N)c([C@H]2C[C@@H]2C(=O)Nc2cc(NCc3cn4cc(C5CC5)cc(N5CC(=O)N(C)C5=O)c4n3)ncn2)n1` (racemic) [Example I-166, rac-(1S*,2S*)-2-(3-cyano-6-methylpyridin-2-yl)-N-(6-(((6-cyclopropyl-8-(3-methyl-2,4-dioxoimidazolidin-1-yl)imidazo[1,2-a]pyridin-2-yl)methyl)amino)pyrimidin-4-yl)cyclopropane-1-carboxamide]: the EC50 in experiment [1] was less than 1 nM. Moreover, on plasma kallikrein, the IC90 lay in the range of 400 to 1500 nM.

In the case of `CN1C(=O)CN(c2cc(C3CC3)cn3cc(CNc4cc(NC(=O)[C@H]5C[C@@H]5c5nc(Cl)ccc5C#N)ncn4)nc23)C1=O` (racemic) [Example I-167, rac-(1S*,2S*)-2-(6-chloro-3-cyanopyridin-2-yl)-N-(6-(((6-cyclopropyl-8-(3-methyl-2,4-dioxoimidazolidin-1-yl)imidazo[1,2-a]pyridin-2-yl)methyl)amino)pyrimidin-4-yl)cyclopropane-1-carboxamide], the EC50 in experiment [1] was less than 1 nM. The concentration for an effect of 90% (IC90) at plasma kallikrein lay in the range of 400 to 1500 nM.

With `CN1C(=O)CN(c2cc(C3CC3)cn3cc(CNc4cc(NC(=O)[C@H]5C[C@@H]5c5nccc(Cl)n5)ncn4)nc23)C1=O` (racemic) [Example I-168, rac-(1S*,2S*)-2-(4-chloropyrimidin-2-yl)-N-(6-(((6-cyclopropyl-8-(3-methyl-2,4-dioxoimidazolidin-1-yl)imidazo[1,2-a]pyridin-2-yl)methyl)amino)pyrimidin-4-yl)cyclopropane-1-carboxamide], the EC50 in experiment [1] was less than 1 nM. Also, at plasma kallikrein, the IC90 was in the range of 400 to 1500 nM.

As for `CN1C(=O)CN(c2cc(C3CC3)cn3cc(CNc4cc(NC(=O)[C@H]5C[C@@H]5c5cc(Cl)ccc5C#N)ncn4)nc23)C1=O` (racemic) [Example I-170, rac-(1S*,2S*)-2-(5-chloro-2-cyanophenyl)-N-(6-(((6-cyclopropyl-8-(3-methyl-2,4-dioxoimidazolidin-1-yl)imidazo[1,2-a]pyridin-2-yl)methyl)amino)pyrimidin-4-yl)cyclopropane-1-carboxamide], in experiment [1], the concentration for a half-maximal effect (EC50) is less than 1 nM. Further, on plasma kallikrein, the 90% effect concentration (IC90) is 1500 to 10000 nM.

Turning to `O=C(Nc1cc(NCc2cn3cc(C4CC4)cc(N4CCOC4=O)c3n2)ncn1)[C@H]1C[C@@H]1c1cc(Cl)ccn1` (racemic) [Example I-173, rac-(1S*,2S*)-2-(4-chloropyridin-2-yl)-N-(6-(((6-cyclopropyl-8-(2-oxooxazolidin-3-yl)imidazo[1,2-a]pyridin-2-yl)methyl)amino)pyrimidin-4-yl)cyclopropane-1-carboxamide], in experiment [1], the EC50 was less than 1 nM. For the same compound, on plasma kallikrein, the IC90 was in the range of 400 to 1500 nM.

As to `CN1CCN(c2cc(C3CC3)cn3cc(CNc4cc(NC(=O)[C@H]5C[C@@H]5c5cc(Cl)ccn5)ncn4)nc23)CC1` (racemic) [Example I-192, rac-(1S*,2S*)-2-(4-chloropyridin-2-yl)-N-(6-(((6-cyclopropyl-8-(4-methylpiperazin-1-yl)imidazo[1,2-a]pyridin-2-yl)methyl)amino)pyrimidin-4-yl)cyclopropane-1-carboxamide], the EC50 in experiment [1] was less than 1 nM. The IC90 on plasma kallikrein was 1500 to 10000 nM.

Regarding `CN1CCN(c2cc(C3CC3)cn3cc(CNc4cc(NC(=O)[C@H]5C[C@@H]5c5cc(Cl)ccn5)ncn4)nc23)C(=O)C1` (racemic) [Example I-195, rac-(1S*,2S*)-2-(4-chloropyridin-2-yl)-N-(6-(((6-cyclopropyl-8-(4-methyl-2-oxopiperazin-1-yl)imidazo[1,2-a]pyridin-2-yl)methyl)amino)pyrimidin-4-yl)cyclopropane-1-carboxamide], the half-maximal effective concentration (EC50) in experiment [1] is less than 1 nM. Moreover, the 90% effect concentration (IC90) at plasma kallikrein lay within 400 to 1500 nM.

With `Cc1ccnc([C@H]2C[C@@H]2C(=O)Nc2cc(NCc3cn4cc(C5CC5)cc(N5CC(=O)N(C)C5=O)c4n3)ccn2)n1` (racemic) [Example I-208, rac-(1S*,2S*)-N-(4-(((6-cyclopropyl-8-(3-methyl-2,4-dioxoimidazolidin-1-yl)imidazo[1,2-a]pyridin-2-yl)methyl)amino)pyridin-2-yl)-2-(4-methylpyrimidin-2-yl)cyclopropane-1-carboxamide], the EC50 in experiment [1] was less than 1 nM. In addition, on plasma kallikrein, the IC90 was less than 400 nM.
